Experimental data: US7776848B2, “Spirocyclic cyclohexane compounds” (Gruenenthal GmbH, priority 2004, dated 2010)
Where a name gives a salt, the structure may show the parent alone.

Key:
human μ-opiate receptor = biological target: T1, human μ-opiate receptor (Homo sapiens, UniProt P35372); assay: Measurement of μ binding ([3H]-naloxone displacement, SPA, CHO-K1 membrane preparation); settings: 1.5 h; % inhibition of specific [3H]-naloxone binding at 1 μM test substance
T1 construct: purchased NEN, Zaventem, Belgium RB-HOM; host or cells: CHO-K1 cells (membrane preparation)
T1 sequence (P35372 whole entry): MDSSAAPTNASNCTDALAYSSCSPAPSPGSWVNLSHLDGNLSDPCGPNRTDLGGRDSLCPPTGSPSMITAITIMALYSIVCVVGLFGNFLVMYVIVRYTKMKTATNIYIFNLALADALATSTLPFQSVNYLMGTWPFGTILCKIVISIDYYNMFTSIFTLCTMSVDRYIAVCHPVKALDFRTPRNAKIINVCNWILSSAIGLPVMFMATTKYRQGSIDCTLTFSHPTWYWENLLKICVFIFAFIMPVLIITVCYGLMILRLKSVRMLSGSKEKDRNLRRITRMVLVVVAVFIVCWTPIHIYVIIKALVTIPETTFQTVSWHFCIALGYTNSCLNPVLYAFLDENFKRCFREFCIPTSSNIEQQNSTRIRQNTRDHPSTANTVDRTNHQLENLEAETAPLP
Description: c) Measurement of μ Binding
The receptor affinity for the human μ-opiate receptor was determined in a homogeneous batch on microtitre plates. To that end, serial dilutions of the substituted spirocyclic cyclohexane derivative to be tested were incubated for 90 minutes at room temperature with a receptor membrane preparation (15-40 μg of protein per 250 μl of incubation batch) of CHO-K1 cells, which express the human μ-opiate receptor (RB-HOM receptor membrane preparation from NEN, Zaventem, Belgium), in the presence of 1 nmol/l of the radioactive ligand [^3H]-naloxone (NET719, NEN, Zaventem, Belgium) and 1 mg of WGA-SPA beads (wheatgerm agglutinin SPA beads from Amersham/Pharmacia, Freiburg, Germany) in a total volume of 250 μl. The incubation buffer used was 50 mmol/l of Tris-HCl supplemented with 0.05 wt. % sodium azide and with 0.06 wt. % bovine serum albumin. In order to determine non-specific binding, 25 μmol/l of naloxone were additionally added. When the ninety-minute incubation time was complete, the microtitre plates were centrifuged off for 20 minutes at 1000 g and the radioactivity was measured in a β-counter (Microbeta-Trilux, PerkinElmer Wallac, Freiburg, Germany). The percentage displacement of the radioactive ligand from its binding to the human μ-opiate receptor at a concentration of the test substances of 1 μmol/l was determined and stated as the percentage inhibition (% inhibition) of specific binding. In some cases, on the basis of the percentage displacement by different concentrations of the compounds of formula I to be tested, IC50 inhibitory concentrations, which effect 50% displacement of the radioactive ligand, were calculated. Ki values for the test substances were obtained by conversion by means of the Cheng-Prusoff equation.

[1] = biological target: T2, 5HT uptake (serotonin reuptake), synaptosomes from hypothalamus of male rat brains (Rattus norvegicus, UniProt P31652); assay: Serotonin reuptake inhibition (5HT uptake inhibition) in rat brain synaptosomes; type: biochemical
T2 construct: synaptosomes are freshly isolated from areas of rat brain; from tissue; host or cells: synaptosomes (P2 fraction) from hypothalamus of male rat brains
T2 sequence (P31652 whole entry): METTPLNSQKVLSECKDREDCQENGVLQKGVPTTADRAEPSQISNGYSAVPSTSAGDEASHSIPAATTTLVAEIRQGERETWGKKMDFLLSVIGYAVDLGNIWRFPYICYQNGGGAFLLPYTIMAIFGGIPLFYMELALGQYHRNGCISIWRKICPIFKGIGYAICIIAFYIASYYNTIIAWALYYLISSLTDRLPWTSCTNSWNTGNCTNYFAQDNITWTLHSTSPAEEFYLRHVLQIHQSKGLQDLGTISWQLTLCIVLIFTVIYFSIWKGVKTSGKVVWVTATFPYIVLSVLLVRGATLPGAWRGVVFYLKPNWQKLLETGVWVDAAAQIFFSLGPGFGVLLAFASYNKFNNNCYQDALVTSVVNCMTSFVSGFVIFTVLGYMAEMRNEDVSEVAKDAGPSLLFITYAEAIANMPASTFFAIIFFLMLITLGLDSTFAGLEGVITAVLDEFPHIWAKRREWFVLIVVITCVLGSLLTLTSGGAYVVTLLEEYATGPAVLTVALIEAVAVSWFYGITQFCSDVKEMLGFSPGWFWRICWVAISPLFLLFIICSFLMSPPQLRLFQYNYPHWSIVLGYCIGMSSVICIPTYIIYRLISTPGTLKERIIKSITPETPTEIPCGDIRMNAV
Description: Biological Testing a) Studies of Serotonin Reuptake Inhibition (5HT Uptake Inhibition)
In order to be able to carry out these in vitro studies, synaptosomes are freshly isolated from areas of rat brain. A so-called “P2” fraction is used in each case, which is prepared according to the procedure of Gray and Whittaker (E. G. Gray and V. P. Whittaker (1962) J. Anat. 76, 79-88). For 5HT uptake, these vesicular particles are isolated from the hypothalamus of male rat brains. A detailed description of the method can be found in the literature (M. Ch. Frink, H.-H. Hennies, W. Englberger, M. Haurand and B. Wilffert (1996) Arzneim.-Forsch./Drug Res. 46 (III), 11, 1029-1036).

[2] = biological target: T3, NA uptake (noradrenaline reuptake), synaptosomes from hypothalamus of male rat brains (Rattus norvegicus, UniProt Q63380); assay: Noradrenaline reuptake inhibition (NA uptake inhibition) in rat brain synaptosomes; type: biochemical
T3 construct: synaptosomes are freshly isolated from areas of rat brain; from tissue; host or cells: synaptosomes (P2 fraction) from hypothalamus of male rat brains
T3 sequence (Q63380 1-617): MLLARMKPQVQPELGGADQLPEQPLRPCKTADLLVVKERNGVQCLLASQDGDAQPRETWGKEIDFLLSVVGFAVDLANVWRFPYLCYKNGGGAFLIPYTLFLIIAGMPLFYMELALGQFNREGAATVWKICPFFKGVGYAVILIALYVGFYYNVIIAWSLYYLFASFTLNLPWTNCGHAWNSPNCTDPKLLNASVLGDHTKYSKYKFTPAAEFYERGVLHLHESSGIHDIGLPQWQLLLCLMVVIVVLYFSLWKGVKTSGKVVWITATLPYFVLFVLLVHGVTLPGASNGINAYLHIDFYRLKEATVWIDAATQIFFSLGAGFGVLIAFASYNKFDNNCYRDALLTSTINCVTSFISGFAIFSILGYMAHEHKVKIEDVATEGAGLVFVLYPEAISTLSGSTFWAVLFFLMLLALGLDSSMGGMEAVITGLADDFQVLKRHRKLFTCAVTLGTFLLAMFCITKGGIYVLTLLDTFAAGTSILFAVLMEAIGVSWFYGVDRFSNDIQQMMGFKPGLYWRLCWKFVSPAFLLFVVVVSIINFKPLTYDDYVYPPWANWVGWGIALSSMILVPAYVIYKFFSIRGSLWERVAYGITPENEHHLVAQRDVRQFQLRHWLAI
Description: b) Studies of Noradrenaline Reuptake Inhibition (NA Uptake Inhibition)
In order to be able to carry out these in vitro studies, synaptosomes are freshly isolated from areas of rat brain. A so-called “P2” fraction is used in each case, which is prepared according to the procedure of Gray and Whittaker (E. G. Gray and V. P. Whittaker (1962) J. Anat. 76, 79-88). For NA uptake, these vesicular particles are isolated from the hypothalamus of male rat brains. A detailed description of the method can be found in the literature (M. Ch. Frink, H.-H. Hennies, W. Englberger, M. Haurand and B. Wilffert (1996) Arzneim.-Forsch./Drug Res. 46 (III), 11, 1029-1036).

Row | Structure (SMILES) | inhibition at 1 µM (human μ-opiate receptor) | inhibition at 10 µM [1] | inhibition at 10 µM [2]
1 | COc1cccc(C2(O)CCC3(CC2CN(C)C)NCCc2c3[nH]c3ccccc23)c1 (stereo not drawn) [Example 1, 1,1-(2-(Dimethylaminomethyl)-3-hydroxy-3-(3-methoxyphenyl)pentamethylene)-3,4-dihydro-1H-2,9-diazafluorene dihydrochloride] | 40% | 44% | 43%
2 | COc1cccc(C2(O)CCC3(CC2CN(C)C)c2[nH]c4ccccc4c2CCN3C(C)=O)c1 (stereo not drawn) [Example 2, 1,1-(2-(Dimethylaminomethyl)-3-hydroxy-3-(3-methoxyphenyl)pentamethylene)-2-acetyl-3,4-dihydro-1H-2,9-diazafluorene hydrochloride] | 65% |  | 
3 | CN(C)CC1CC2(CCC1(O)c1ccccc1)OCCc1c2[nH]c2ccccc12 (stereo not drawn) [Example 4, 1,1-(2-(Dimethylaminomethyl)-3-hydroxy-3-phenyl-pentamethylene)-1,3,4,9-tetrahydro-pyrano[3,4-b]indole sesquicitrate] | 74% | 84% | 
4 | CN(C)CC1CC2(CCC1(O)c1ccccc1)OCCc1c2oc2ccccc12 (stereo not drawn) [Example 5, 1,1-(2-(Dimethylaminomethyl)-3-hydroxy-3-phenyl-pentamethylene)-1,3,4,9-tetrahydro-pyrano[3,4-b]benzofuran citrate] | 58% | 84% | 51%
5 | CN(C)CC1CC2(CCC1(O)c1cccc(F)c1)OCCc1c2oc2ccccc12 (stereo not drawn) [Example 8, 1,1-(2-(Dimethylaminomethyl)-3-hydroxy-3-(3-fluorophenyl)-pentamethylene)-1,3,4,9-tetrahydro-pyrano[3,4-b]benzofuran citrate] | 73% | 88% | 66%
6 | Cc1ccccc1C1(O)CCC2(CC1CN(C)C)OCCc1c2oc2ccccc12 (stereo not drawn) [Example 12, 1,1-(2-(Dimethylaminomethyl)-3-hydroxy-3-(2-methylphenyl)-pentamethylene)-1,3,4,9-tetrahydro-pyrano[3,4-b]benzofuran citrate] | 56% | 68% | 41%
7 | CN(C)CC1CC2(CCC1(O)c1cccc(F)c1)OCCc1c2[nH]c2ccccc12 (stereo not drawn) [Example 27, 1,1-(2-(Dimethylaminomethyl)-3-hydroxy-3-(3-fluorophenyl)-pentamethylene)-1,3,4,9-tetrahydro-pyrano[3,4-b]indole hydrochloride] | 64% | 83% | 
8 | CN(C)CC1CC2(CCC1(O)c1ccccc1)NCCc1c2[nH]c2ccccc12 (stereo not drawn) [Example 28, 1,1-(2-(Dimethylaminomethyl)-3-hydroxy-3-phenyl-pentamethylene)-3,4-dihydro-1H-2,9-diazafluorene citrate] | 57% |  | 
9 | CSc1ccc(C2(O)CCC3(CC2CN(C)C)NCCc2c3[nH]c3cc(F)ccc23)cc1 (stereo not drawn) [Example 34, 1,1-(2-(Dimethylaminomethyl)-3-hydroxy-3-(4-methylthiophenyl)-pentamethylene)-7-fluoro-3,4-dihydro-1H-2,9-diazafluorene citrate] | 54% | 65% | 57%
